Starred links: 1 amine or outer side, 2 acyl side, 3 side chain; linkers in the order of their positions; H or OH if unused. Positions of bridges follow the written chain, without caps; N, C: chain ends. Non-standard residues stand in square brackets, D forms with d. Residues, ends and D or L forms follow the SMILES beside them. *: point of attachment. NH(CH2)3NH(O2Oc(DOTA)) = O=C(O)CN1CCN(CC(=O)O)CCN(CC(=O)NCCOCCOCC(=O)NCCCN*)CCN(CC(=O)O)CC1; Phe(3-NHCO(CH2)3SO2NH2) = N[C@@H](Cc1cccc(NC(=O)CCCS(N)(=O)=O)c1)C(=O)O; NH(1-deoxy-D-glucityl) = OC[C@@H](O)[C@@H](O)[C@H](O)[C@@H](O)CN*; DOTA = O=C(O)CN1CCN(CC(=O)O)CCN(CC(=O)*)CCN(CC(=O)O)CC1; Phe(4-tBu) = CC(C)(C)c1ccc(C[C@H](N)C(=O)O)cc1; Pyridine(3,5-bisCH2) = c1ncc(C[*:2])cc1C[*:1]; Phe(4-NH2) = Nc1ccc(C[C@H](N)C(=O)O)cc1; mXylylene = c1cc(C[*:1])cc(C[*:2])c1; Trx = NC[C@H]1CC[C@H](C(=O)O)CC1; X2 = O=C(CN1CCC(N[*:1])CC1)[*:2]; X52 = NS(=O)(=O)c1cnn(CC(=O)*)c1; tBuAla = CC(C)(C)C[C@H](N)C(=O)O; X1 = O=C(CN1CCN([*:1])CC1)[*:2]; Pen = CC(C)(S)[C@H](N)C(=O)O; Tle = CC(C)(C)[C@H](N)C(=O)O; Isovaleryl = CC(C)CC(=O)*

One assay addresses T1, CAIX-expressing human HT-29 colorectal cancer cells (Homo sapiens, UniProt Q16790).
T1 construct: CAIX-expressing human HT-29 colorectal cancer cells; host or cells: HT-29 human colorectal cancer cells
The experiment in a line: FACS binding assay (IC50 determination, competition with tracer 3BP-2776 or 3BP-4149). To be noted: FACS binding assay, HT-29 cells, competition with tracer 3BP-2776 (10 nM, biotin-labeled), 4° C., 1 hour; read-out: pIC50 category (activity) (converted). Put shortly: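 HT-29 cells in FACS buffer (PBS, 1% FCS) at 500.000 cells/ml were exposed to compounds competing with a labelled tracer, with biotinylated compounds detected by 1 μg/mL APC-streptavidin for 30 min on ice. APC/Cy5 median fluorescence was read by flow cytometry and IC50 derived by 4PL fit.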
(In flow cytometry, cells or beads pass a laser one at a time.)
Consider `CC(=O)N[C@H](C(=O)N[C@@H](Cc1ccc(O)cc1)C(=O)N[C@H]1CSCc2cccc(c2)CSC(C)(C)[C@@H](C(N)=O)NC(=O)[C@H](CO)NC(=O)[C@H](Cc2c[nH]c3ccccc23)NC(=O)[C@@H]2CCC(=O)NCCCC[C@H](NC(=O)[C@H]3CCCN3C(=O)[C@H](CCC(=O)O)NC1=O)C(=O)N[C@@H](Cc1c[nH]c3ccccc13)C(=O)N[C@@H](CC(C)C)C(=O)N2)C(C)C` [3BP-3963] (Ac-VYCE[dP]KWLEWS[Pen]-NH2; linker 3-12 via mXylylene; lactam 6-9), for which the IC50 is < 0.01 µM.
On the same count and under the same terms, the result for `CC(C)C[C@@H]1NC(=O)[C@H](Cc2ccc(C(C)(C)C)cc2)NC(=O)[C@H](CC(=O)O)NC(=O)[C@H]2CCCN2C(=O)[C@H](CCC(=O)O)NC(=O)[C@@H](NC(=O)[C@H](Cc2ccc(O)cc2)NC(=O)[C@@H](NC(=O)CN2CCC(NC(=O)CN3CCN(CC(=O)O)CCN(CC(=O)O)CCN(CC(=O)O)CC3)CC2)C(C)C)CSCc2cccc(c2)CSC[C@@H](C(N)=O)NC(=O)[C@H](CO)NC(=O)[C@H](Cc2c[nH]c3ccccc23)NC(=O)[C@H]([C@@H](C)O)NC1=O` [3BP-4160] ({DOTA}-[X2]VYCE[dP]D[Phe(4-tBu)]LTWSC-NH2; linker 4-13 via mXylylene) reads 0.01 to 0.0794 µM; that for `CC(C)C[C@@H]1NC(=O)[C@H](Cc2cccc(NC(=O)CCCS(N)(=O)=O)c2)NC(=O)[C@H](CC(=O)O)NC(=O)[C@H]2CCCN2C(=O)[C@H](CCC(=O)O)NC(=O)[C@@H](NC(=O)[C@H](CCCNC(=N)N)NC(=O)CN2CCN(C(=O)CN3CCN(CC(=O)O)CCN(CC(=O)O)CCN(CC(=O)O)CC3)CC2)CSCc2cccc(c2)CSC[C@@H](C(N)=O)NC(=O)[C@H](CO)NC(=O)[C@H](Cc2c[nH]c3ccccc23)NC(=O)[C@H]([C@@H](C)O)NC1=O` [3BP-4451] ({DOTA}-[X1]RCE[dP]D[Phe(3-NHCO(CH2)3SO2NH2)]LTWSC-NH2; linker 3-12 via mXylylene), < 0.01 µM.
On the same count and under the same terms, the result for `CC(C)C[C@@H]1NC(=O)[C@H](Cc2c[nH]c3ccccc23)NC(=O)[C@H](CC(=O)O)NC(=O)[C@H]2CCCN2C(=O)[C@H](CCC(=O)O)NC(=O)[C@@H](NC(=O)[C@H](Cc2ccc(O)cc2)NC(=O)[C@@H](NC(=O)CN2CCC(NC(=O)CN3CCN(CC(=O)O)CCN(CC(=O)O)CCN(CC(=O)O)CC3)CC2)C(C)C)CSCc2cncc(c2)CSC[C@@H](C(N)=O)NC(=O)[C@H](CO)NC(=O)[C@H](Cc2c[nH]c3ccccc23)NC(=O)[C@H]([C@@H](C)O)NC1=O` [3BP-4141] ({DOTA}-[X2]VYCE[dP]DWLTWSC-NH2; linker 4-13 via Pyridine(3,5-bisCH2)) reads 0.1 to 0.794 µM; that for `CC(C)C[C@@H]1NC(=O)[C@H](Cc2c[nH]c3ccccc23)NC(=O)[C@H](CC(=O)O)NC(=O)[C@H]2CCCN2C(=O)[C@H](CCC(=O)NC[C@H](O)[C@@H](O)[C@H](O)[C@H](O)CO)NC(=O)[C@@H](NC(=O)[C@H](Cc2ccc(O)cc2)NC(=O)[C@@H](NC(=O)CN2CCC(NC(=O)CN3CCN(CC(=O)O)CCN(CC(=O)O)CCN(CC(=O)O)CC3)CC2)C(C)C)CSCc2cccc(c2)CSC[C@@H](C(N)=O)NC(=O)[C@H](CO)NC(=O)[C@H](Cc2c[nH]c3ccccc23)NC(=O)[C@H]([C@@H](C)O)NC1=O` [3BP-4113] ({DOTA}-[X2]VYCE(NH(1-deoxy-D-glucityl))[dP]DWLTWSC-NH2; linker 4-13 via mXylylene), < 0.01 µM.

The same assay, now with this note: FACS binding assay, HT-29 cells, competition with tracer 3BP-4149 (3 nM, Cy5-labeled), 4° C., 1 hour; read-out: pIC50 category (activity) (converted).
For `CC(C)C[C@@H]1NC(=O)[C@H](Cc2ccc(NC(=O)Cn3cc(S(N)(=O)=O)cn3)cc2)NC(=O)[C@H](CC(=O)O)NC(=O)[C@H]2CCCN2C(=O)[C@H](CCC(=O)O)NC(=O)[C@@H](NC(=O)[C@H](CCC(N)=O)NC(=O)CN2CCN(C(=O)CN3CCN(CC(=O)O)CCN(CC(=O)O)CCN(CC(=O)O)CC3)CC2)CSCc2cccc(c2)CSC[C@@H](C(N)=O)NC(=O)[C@H](CO)NC(=O)[C@H](Cc2c[nH]c3ccccc23)NC(=O)[C@H]([C@@H](C)O)NC1=O` [3BP-4482] ({DOTA}-[X1]QCE[dP]D[Phe(4-NH2)](X52)LTWSC-NH2; linker 3-12 via mXylylene), the IC50 was 0.1 to 0.794 µM.

Staying with this assay, now noted: FACS competition on HT-29 cells, Tracer ID 3BP-2776 (10 nM, biotin-labeled), 4° C., 1 hour; read-out: pIC50 category (activity) (converted).
For `CC(C)CC(=O)N[C@@H](CO)C(=O)N[C@H]1CSCc2cccc(c2)CSC[C@@H](C(N)=O)NC(=O)[C@H](CCC(=O)NCCCNC(=O)COCCOCCNC(=O)CN2CCN(CC(=O)O)CCN(CC(=O)O)CCN(CC(=O)O)CC2)NC(=O)[C@H](Cc2c[nH]c3ccccc23)NC(=O)[C@H]([C@@H](C)O)NC(=O)[C@H](CC(C)C)NC(=O)[C@H](Cc2c[nH]c3ccccc23)NC(=O)[C@H](CC(=O)O)NC(=O)[C@H]2CCCN2C(=O)[C@H](CCC(=O)O)NC1=O` [3BP-3743] (Isovaleryl-SCE[dP]DWLTWE(NH(CH2)3NH(O2Oc(DOTA)))C-NH2; linker 2-11 via mXylylene), the IC50 was < 0.01 µM.
Still for that read-out and setting: the result for `CC(C)CC(=O)N[C@@H](CCC(=O)O)C(=O)N[C@H]1CSCc2cccc(c2)CSC[C@@H](C(N)=O)NC(=O)[C@H](CO)NC(=O)[C@H](Cc2c[nH]c3ccccc23)NC(=O)[C@H]([C@@H](C)O)NC(=O)[C@H](CC(C)C)NC(=O)[C@H](Cc2c[nH]c3ccccc23)NC(=O)[C@H](CC(=O)O)NC(=O)[C@H]2CCCN2C(=O)[C@H](CCC(=O)O)NC1=O` [3BP-3728] (Isovaleryl-ECE[dP]DWLTWSC-NH2; linker 2-11 via mXylylene) reads < 0.01 µM.
On the same count and under the same terms, the value for `CC(=O)N[C@H](C(=O)N[C@H](Cc1ccc(O)cc1)C(=O)N[C@H]1CSCc2cccc(c2)CSC[C@@H](C(N)=O)NC(=O)[C@H](CCC(N)=O)NC(=O)[C@H](Cc2c[nH]c3ccccc23)NC(=O)[C@H]([C@@H](C)O)NC(=O)[C@H](CC(C)C)NC(=O)[C@H](Cc2c[nH]c3ccccc23)NC(=O)[C@H](CC(=O)O)NC(=O)CNC(=O)[C@H](CCC(=O)O)NC1=O)C(C)C` [3BP-3044] (Ac-V[dY]CEGDWLTWQC-NH2; linker 3-12 via mXylylene) was 0.1 to 0.794 µM; that for `CC(=O)N[C@H](C(=O)N[C@@H](Cc1ccc(O)cc1)C(=O)N[C@H]1CSCc2cccc(c2)CSC[C@@H](C(N)=O)NC(=O)[C@H](CCC(N)=O)NC(=O)[C@H](Cc2c[nH]c3ccccc23)NC(=O)[C@H]([C@@H](C)O)NC(=O)[C@H](C(C)(C)C)NC(=O)[C@H](Cc2c[nH]c3ccccc23)NC(=O)[C@H](CC(=O)O)NC(=O)CNC(=O)[C@H](CCC(=O)O)NC1=O)C(C)C` [3BP-3066] (Ac-VYCEGDW[Tle]TWQC-NH2; linker 3-12 via mXylylene) was 0.01 to 0.0794 µM.
For the compound `CC(C)CC(=O)N[C@@H](CC(=O)O)C(=O)N[C@H]1CSCc2cccc(c2)CSC[C@@H](C(N)=O)NC(=O)[C@H](CO)NC(=O)[C@H](Cc2c[nH]c3ccccc23)NC(=O)[C@H]([C@@H](C)O)NC(=O)[C@H](CC(C)C)NC(=O)[C@H](Cc2c[nH]c3ccccc23)NC(=O)[C@H](CC(=O)O)NC(=O)[C@H]2CCCN2C(=O)[C@H](CCC(=O)O)NC1=O` [3BP-3727] (Isovaleryl-DCE[dP]DWLTWSC-NH2; linker 2-11 via mXylylene), the IC50 was < 0.01 µM.
Still for that read-out and setting: the value for `CC(=O)N[C@H](C(=O)N[C@@H](CO)C(=O)N[C@H]1CSCc2cccc(c2)CSC[C@@H](C(N)=O)NC(=O)[C@H](CO)NC(=O)[C@H](Cc2c[nH]c3ccccc23)NC(=O)[C@H]([C@@H](C)O)NC(=O)[C@H](CC(C)C)NC(=O)[C@H](Cc2c[nH]c3ccccc23)NC(=O)[C@H](CC(=O)O)NC(=O)[C@H]2CCCN2C(=O)[C@H](CCC(=O)O)NC1=O)C(C)C` [3BP-3571] (Ac-VSCE[dP]DWLTWSC-NH2; linker 3-12 via mXylylene) was < 0.01 µM.
For `CC(=O)N[C@H](C(=O)N[C@@H](Cc1ccc(O)cc1)C(=O)N[C@H]1CSCc2cccc(c2)CSC[C@@H](C(N)=O)NC(=O)[C@H](CCC(N)=O)NC(=O)[C@H](Cc2c[nH]c3ccccc23)NC(=O)[C@H]([C@@H](C)O)NC(=O)[C@@H](CC(C)C)NC(=O)[C@H](Cc2c[nH]c3ccccc23)NC(=O)[C@H](CC(=O)O)NC(=O)CNC(=O)[C@H](CCC(=O)O)NC1=O)C(C)C` [3BP-3048] (Ac-VYCEGDW[dL]TWQC-NH2; linker 3-12 via mXylylene), the IC50 was 0.1 to 0.794 µM.
Consider `CC(C)[C@H](NC(=O)[C@H]1CC[C@H](CNC(=O)CN2CCN(CC(=O)O)CCN(CC(=O)O)CCN(CC(=O)O)CC2)CC1)C(=O)N[C@@H](Cc1ccc(O)cc1)C(=O)N[C@H]1CSCc2cccc(c2)CSC[C@@H](C(N)=O)NC(=O)[C@H](C)NC(=O)[C@H](Cc2c[nH]c3ccccc23)NC(=O)[C@H]([C@@H](C)O)NC(=O)[C@H](CC(C)(C)C)NC(=O)[C@H](Cc2c[nH]c3ccccc23)NC(=O)[C@H](CC(=O)O)NC(=O)[C@H]2CCCN2C(=O)[C@H](CCC(=O)O)NC1=O` [3BP-3431] ({DOTA-Trx}-VYCE[dP]DW[tBuAla]TWAC-NH2; linker 3-12 via mXylylene), for which the IC50 is < 0.01 µM.
`CC(=O)N[C@H](C(=O)N[C@@H](Cc1ccccc1)C(=O)N[C@H]1CSCc2cccc(c2)CSC[C@@H](C(N)=O)NC(=O)[C@H](CCC(=O)NCCCNC(=O)COCCOCCNC(=O)CN2CCN(CC(=O)O)CCN(CC(=O)O)CCN(CC(=O)O)CC2)NC(=O)[C@H](Cc2c[nH]c3ccccc23)NC(=O)[C@H]([C@@H](C)O)NC(=O)[C@H](CC(C)C)NC(=O)[C@H](Cc2c[nH]c3ccccc23)NC(=O)[C@H](CC(=O)O)NC(=O)[C@H]2CCCN2C(=O)[C@H](CCC(=O)O)NC1=O)C(C)C` [3BP-3733] (Ac-VFCE[dP]DWLTWE(NH(CH2)3NH(O2Oc(DOTA)))C-NH2; linker 3-12 via mXylylene): the IC50 was < 0.01 µM.

For the origin of these results see patent publication US20250339569A1, “CARBONIC ANHYDRASE IX LIGANDS” (priority 2021, published 2025).
